{"source": "patent US20250075218A1", "about": "“HIF1A OR GLUT1 INHIBITION IN INFLAMMATORY SKIN DISEASES” (New York University, priority 2023, published 2025)", "key": {"[1]": {"test_system": "HIF1α-inhibitor downregulated gene signature", "experiment": "Transcriptional program response analyses to clinical trial data (GSVA, NCT01537432)", "type": "in vivo, human", "details": "baseline and 1, 4, 12 weeks of secukinumab or placebo", "text": "The dramatic transcriptional response following BAY 87-2243 treatment prompted investigation of the role of HIF1α-modulated genes on PsO disease pathogenesis. Toward this end, HIF1α-modulated genes were projected onto a longitudinal analysis of the transcriptional response from 33 patients following either placebo (9 patients) or anti-IL-17A blocking (secukinumab) therapy (24 patients) (NCT01537432) (Krueger et al., 2019).\nTranscriptional program response analyses to clinical trial data. Scoring methods: To evaluate if gene signatures derived from differential gene expression in human biopsy cultures or topical HIF1α inhibitor treatment in IMQ-treated murine model would be affected by anti-IL17 treatment, the genes down regulated by HIF1α inhibitor (HIF1α-signature) were projected into the longitudinal gene expression profiles of 31 psoriasis patients enrolled in a randomized clinical trial testing the efficacy of Secukinumab 300 mgs (n=22) versus Placebo (n=9) (Krueger et al., 2019). The overall expression/activity of the signatures was estimated using gene set variation analysis (GSVA). GSVA, a non-parametric and non-supervised method, estimated a sample-wise enrichment score for each gene set on the RCT cohorts. Such enrichment scores, representing overall gene set activity, were then modeled to evaluate the treatment effect and the association with treatment response. […]"}, "[2]": {"test_system": "HIF1A, IL17RA, and IL17RC", "experiment": "Spatial transcriptomics of pre- and post-secukinumab lesional and non-lesional skin", "type": "in vivo, human", "details": "following therapy, 12 weeks; one patient", "text": "IL-17A blocking therapies are lauded for their clinical success, often achieving complete remission of skin plaques within 6 months of treatment (Ghoreschi et al., 2021). This remarkable clinical response provided a unique opportunity to examine if HIF1α levels normalize with successful therapy. Therefore, pre- and post-treatment biopsies were obtained from a secukinumab (anti-IL-17A) treated PsO patient who achieved complete clinical remission (Psoriatic Area and Severity Score (PASI) 100, or 100% psoriasis plaque clearance) (FIG. 3A and Table 1). […]\nWhen compared to contralateral non-lesional skin, the PsO lesion was enriched for HIF1A, IL17RA, and IL17RC (FIGS. 3B and 8H). […] As a complementary analysis, HIF1α protein expression was measured in a cohort of 10 patients treated with etanercept (anti-TNFα) that achieved response (PASI 75 or greater) at 12 weeks (Table 2) (Stinco et al., 2019). […]\nSpatial transcriptomics. […] Spot selection and image alignment: Following probe cleavage, fluorescent images were taken on a Hamamatsu NanoZoomer whole slide fluorescence scanner. […] The Space Ranger mkfastq function was used for sample demultiplexing and converting spatial barcodes and reads into FASTQ format. […]"}, "PsO patient": {"test_system": "PsO patient", "experiment": "Clinical metadata of pre- and post-secukinumab-treated patient", "type": "in vivo, human", "text": "IL-17A blocking therapies are lauded for their clinical success, often achieving complete remission of skin plaques within 6 months of treatment (Ghoreschi et al., 2021). This remarkable clinical response provided a unique opportunity to examine if HIF1α levels normalize with successful therapy. Therefore, pre- and post-treatment biopsies were obtained from a secukinumab (anti-IL-17A) treated PsO patient who achieved complete clinical remission (Psoriatic Area and Severity Score (PASI) 100, or 100% psoriasis plaque clearance) (FIG. 3A and Table 1). Pre- and 12-weeks post-therapy biopsies from both lesional and non-lesional skin were taken <0.5 cm apart from the same patient, ensuring that post-treatment biopsies were taken from resolved lesions and not adjacent uninvolved skin (FIG. 8A).\nHuman skin samples. Following anesthetization with 2% lidocaine injection, 4 mm full-thickness punch biopsies were performed on lesional skin, and matched non-lesional skin located contralaterally. In healthy volunteers, skin biopsy samples were obtained from the trunk and/or extremities. Post-therapy biopsies from secukinumab-treated patients were taken 5 to 10 mm away from the original biopsy site within the original lesion area, discerned by hyperpigmentation, and at contralateral non-lesional skin."}, "IMQ-treated murine skin": {"test_system": "IMQ-treated murine skin", "experiment": "Lactate Secretion Assay of ex vivo murine back skin culture", "type": "cell-based, mouse", "details": "2-DG 50 mM, 24 hours culture", "experimental": "To examine lactate levels in inflamed skin, full thickness biopsies of IMQ-treated or control skin were cultured for 24 hours, in the presence or absence of glycolysis inhibitor 2DG, and measured lactate in the culture supernatant (FIG. 13A). […] 4 mm full-thickness punch biopsies from IMQ-treated or healthy murine skin were secured with matrigel in 12-well plate and cultured for 24 hours in 400 μl of Dulbecco's Modified Eagle Medium (DMEM) with 10% Fetal Bovine Serum (FBS). For inhibitor studies, cultures were treated with 2-DG (50 mM). At the end of 24 hours, supernatant was collected, centrifuged at 1000 g to pellet debris, and stored in −80C until further use. Lactate was measured using the colorimetric L-Lactate Assay Kit (Abcam)."}, "PsO lesional human skin": {"test_system": "PsO lesional human skin", "experiment": "Ex vivo culture of human PsO lesional biopsies, bulk RNA-seq", "text": "Therefore, an ex vivo “trial in a dish” system was devised to test the effects of HIF1α inhibition on PsO lesional human skin. Lesional biopsies were obtained from 5 PsO patients that were either therapy-naïve or non-responsive to biologic therapy (Table 3). […] Surgical foreskin discards were used as healthy control skin and subject to the same treatment regimens.\nHuman skin culture. 4 mm full-thickness punch biopsies from lesional psoriatic skin and healthy skin (foreskin) were cut into […], secured with matrigel in 24-well plate and cultured within a maximum of 24-hours after removal from the patient. Each biopsy piece was subjected to different treatment conditions: (1) DMSO vehicle, (2) 10 μM of BAY87-2243, and (3) 500 nM of calcipotriol and 5 μM of betamethasone dipropionate (standard of care). The tissue was cultured in 24-well plates in 500 μl of Dulbecco's Modified Eagle Medium (DMEM) with 10% Fetal Bovine Serum (FBS). After 24 hours of culture, tissues were flash-frozen in liquid nitrogen and stored in −80° C. until RNA extraction. Total RNA was extracted using the RNeasy Fibrous Tissue Mini Kit (Qiagen) per manufacturer's instructions. Libraries were generated with Ribo-Zero Plus rRNA Depletion Kit (Illumina) and sequenced on Novaseq 6000 system with 100-bp paired-end reads.\nLow-input bulk-RNA sequencing of human and murine skin. For human studies, skin biopsies were flash-frozen in liquid nitrogen following culture and treatment modalities. […] Libraries were generated with Ribo-Zero Plus rRNA Depletion Kit (Illumina) and sequenced on Novaseq 6000 system with 100-bp paired-end reads. […] Reads were trimmed for adapter sequences using trimmomatic (version 0.36) in paired end mode with the minimal read length option set to 35 base pairs, trailing set to 5, and the sliding window set to 4:15. Sequencing reads were aligned to the mouse genome (mm10/GRCm38) and human genome (hg38) using the splice-aware STAR aligner (Dobin et al, 2013). […]"}, "[3]": {"test_system": "imiquimod (IMQ) PsO murine model", "experiment": "Imiquimod (IMQ) PsO murine model with topical inhibitor treatment", "type": "in vivo, mouse", "procedure": "Murine models of psoriatic inflammation. Topical imiquimod application: For imiquimod studies, seven- to eight-week-old mice in telogen (resting phase of hair cycle) were anesthetized with isoflurane prior to hair removal and imiquimod treatment on dorsal skin. 50 mg of imiquimod cream (5%, Perrigo) was applied to shaved dorsal skin, and application was repeated up to six days as previously described (van der Fits et al., 2009). Intradermal rmIL-23 injection: For recombinant murine (rm) IL-23 studies, the ear pinnae in 8-week-old mice were intradermally injected with either rmIL-23 (500 ng in 20 μl of PBS, carrier-free, PeproTech) or PBS control for five days. Animal drug treatments. […] Murine skin immunofluorescence and image analyses. […] Nuclei were stained with DAPI. […] Data were analyzed using ImageJ software."}, "uninflamed skin": {"test_system": "uninflamed skin", "details": "mouse, in vivo", "procedure": "To examine if HIF1α is sufficient to promote epithelial pathology in the absence of inflammation, a HIF1α activator, FG-4592, was used (Wu et al., 2016). […] Animal drug treatments. EdU pulse: Mice were injected intraperitoneally with EdU (50 μg/g) (Thermo Scientific) three hours prior to sacrifice. PIM HCl: Pimonidazole Hydrochloride (PIM HCl, hypoxyprobe) was injected intraperitoneally into mice (20 mg/kg) two hours prior to sacrifice. BAY 87-2243: BAY 87-2243 (2 mg/ml, Selleck Chemicals) was first dissolved in DMSO and then diluted in a water-based gel. This gel was topically applied to dorsal skin daily starting two days prior to imiquimod application and continuing in parallel with imiquimod application until analysis. Sodium Oxamate: Sodium oxamate (70 mg/ml, Cayman Chemicals) was first dissolved in H2O and then diluted in a water-based gel. This gel was topically applied to dorsal skin daily starting either on the first or fourth day of imiquimod application and continuing in parallel with imiquimod application until analysis. Syrosingopine: Syrosingopine (10 mg/ml, Cayman Chemicals) was first dissolved in DMSO and then diluted in a water-based gel. […] Sections were blocked and stained with primary and secondary fluorescence-conjugated antibody. […] Pimonidazole Hydrochloride (PIM HCl) was detected by pretreating slides with a mouse-on-mouse immunodetection kit (Vector Laboratories) and then staining with biotin-anti-PIM adduct antibodies as per the manufacturer's guidelines (Hypoxyprobe). Data were analyzed using ImageJ software. Epidermal thickness was quantified by measuring K14^+ thickness with an in-house ImageJ macro. Thickness of keratin 6 (K6) and glucose transporter 1 (Glut1) layer was quantified by measuring K6^+K14^+ and Glut1^+K14^+ thickness with an ImageJ macro. The number of CD3 and EdU positive cells was quantified using ImageJ software and normalized per dermis area and length of epidermis, respectively."}, "[4]": {"details": "post-treatment, 12 weeks, one patient (ST-15), pre-treatment value 5"}, "[5]": {"details": "BAY 87-2243 topical concurrent with IMQ, vs vehicle"}}, "note": "“Also recorded” adds a separate entry of the source.", "data": [{"molecule": "secukinumab", "values": [{"measurement": "GSVA score of gene signature downregulated by HIF1α inhibitor, treatment group vs placebo", "setting": "[1]", "value": "significantly distinguished"}, {"measurement": "expression of HIF1A, IL17RA, and IL17RC in resolved skin (post-treatment L)", "setting": "[2]", "value": "comparable to that of non-lesional skin"}, {"measurement": "psoriasis plaque clearance (PASI 100, complete clinical remission)", "setting": "PsO patient; one secukinumab-treated PsO patient", "value": 100, "unit": "%"}, {"measurement": "Body surface area (BSA) with psoriasis (%)", "setting": "PsO patient; post-treatment, 12 weeks post-therapy, one patient (ST-15; AL and ANL samples), pre-treatment value 8", "value": 0, "unit": "%"}, {"measurement": "Deformity", "setting": "PsO patient; post-treatment, 12 weeks, one patient (ST-15), pre-treatment value 0", "value": 0}, {"measurement": "Enthesitis", "setting": "PsO patient; post-treatment, 12 weeks, one patient (ST-15), pre-treatment value 1", "value": 0}, {"measurement": "Dactylitis", "setting": "PsO patient; post-treatment, 12 weeks, one patient (ST-15), pre-treatment value 4", "value": 0}, {"measurement": "PASI", "setting": "PsO patient; [4]", "value": 0}, {"measurement": "Phys GA (global)", "setting": "PsO patient; [4]", "value": 1}, {"measurement": "Swollen joint count (SJC)", "setting": "PsO patient; post-treatment, 12 weeks, one patient (ST-15), pre-treatment value 11", "value": 0}, {"measurement": "Tender joint count (TJC)", "setting": "PsO patient; post-treatment, 12 weeks, one patient (ST-15), pre-treatment value 12", "value": 0}]}, {"molecule": "O=CC[C@@H](O)[C@H](O)[C@H](O)CO", "note": "[2DG, 2-Deoxy-D-glucose]", "values": [{"measurement": "lactate in culture supernatant, IMQ-treated vs control skin", "setting": "IMQ-treated murine skin", "value": "diminished"}, {"measurement": "lactate in culture supernatant, IMQ-treated vs control skin", "setting": "IMQ-treated murine skin; listed as 2-DG", "value": "lost"}]}, {"molecule": "Cc1cc(-c2nc(-c3ccc(OC(F)(F)F)cc3)no2)nn1Cc1ccnc(N2CCN(C3CC3)CC2)c1", "note": "[BAY 87-2243]", "values": [{"measurement": "genes associated with glycolytic metabolism, STAT3 activation and epithelial development/differentiation", "setting": "PsO lesional human skin; PsO lesional skin, 10 μM, 24 hours, vs vehicle", "value": "strikingly downregulated"}, {"measurement": "number of differentially expressed genes (DEGs) compared to vehicle control", "setting": "PsO lesional human skin; PsO lesional skin, 24 hours in culture, FDR<0.05, 10 μM BAY87-2243, SoC 500 nM calcipotriol and 5 μM betamethasone dipropionate", "value": 2921}, {"measurement": "expression of lactate transporters SLC16A1 (MCT1) and SLC16A3 (MCT4)", "setting": "PsO lesional human skin; human PsO lesional skin culture, 24 hours", "value": "significantly reduced"}, {"measurement": "epidermal thickness", "setting": "[3]; BAY 87-2243 2 mg/ml gel topical daily from two days prior to and concurrent with IMQ, vs vehicle", "value": "diminished; also recorded: significantly reduced"}, {"measurement": "dermal T cells (CD3+)", "setting": "[3]; BAY 87-2243 topical concurrent with IMQ, vs control", "value": "reduction; also recorded: significantly lower numbers"}, {"measurement": "inflammatory Keratin 6 expression (K6 thickness)", "setting": "[3]; [5]", "value": "significantly reduced"}, {"measurement": "proliferation (Ki67)", "setting": "[3]; [5]", "value": "significantly reduced"}, {"measurement": "epidermal thickness", "setting": "uninflamed skin", "value": "not altered"}]}]}
